Experimental data taken from patent US9187411B2, “Leukotriene B4 antagonist compound” (Eli Lilly and Company, priority 2012, dated 2015).
Where two headings read alike, the source gives them in different places. Marks after values point to notes of the source that are not given here.

Tests used:
[1] = target: T1, hBLT1 (Homo sapiens, UniProt Q15722); assay: [3H]-LTB4 binding assay in hBLT1 containing membranes; conditions: [3H]-LTB4 displacement, hBLT1/CHO-K1 membranes, Ki = IC50/2.7
T1 construct: expressed in transfected cells; membrane preparation
Experimental: [^3H]-LTB4 and known BLT1 and BLT2 antagonists are used to generate LTB4 displacement curves and IC50 values for compounds of the present invention. Receptor inhibition by compounds of the present invention is determined relative to BLT1 inhibitor and BLT2 inhibitor reference molecules to obtain percent efficacies.
hBLT1 Test Compound Preparations: For hBLT1 assays, test compounds are prepared in DMSO to make up a 10 mM stock solution. […]
hBLT1/CHO-K1 Stable Xcell Line Preparations: Human BLT1 receptor DNA (National Center for Biotechnology Information (NCBI), Reference Sequence NM_181657) is synthesized and cloned into expression vector pcDNA3.1/Hygro(+) (Invitrogen V87020). […] Single clones are isolated and screened for BLT1 expression and function using Western Blot analysis and Fluorometric Imaging Plate Reader (FLIPR®) calcium release assay. […]
[^3H]-LTB4 (30 μL of 1.3 nM, PerkinElmer NET-852) is aliquoted into a 96-well Millipore Multiscreen-filter binding plate (catalogue number MAFBNOB10) which is pre-wetted with Buffer A (50 mM HEPES pH 7.4, 10 mM MgCl2, 10 mM NaCl, 10% glycerol, 1% BSA). […] The plate is allowed to sit for 16 h and then read on a Packard Instrument Company Topcount® for 1 min. […] The IC50s are converted to Ki values by dividing by 2.7 (previously calculated). […]

[2] = tested on: BCA atherosclerosis lesions in LDLr KO mice; assay: LDLr KO mouse brachiocephalic arch atherosclerosis model; assay type: in vivo; conditions: for Lesion area: 4 weeks, vehicle 50,686; for Macrophage area (brown color): vehicle 18,571; for reduction of lesion area compared to vehicle / reduction of BCA cholesteryl ester (CE) content compared to vehicle: Table 3; for Cholesteryl ester: BCA, vehicle 22.50
Experimental: The compound of Example 2 is tested in the low density lipoprotein (LDL) receptor knock-out (LDLr KO) mouse model of atherosclerosis. Mice deficient in the ability to encode and synthesize the LDL receptor (LDLr KO) are hypercholesterolemic, especially when maintained on high cholesterol diet, Ishibashi et al. J. Clin. Invest. (1994), 93: 1885-1893. In the large arteries, LDLr KO mice develop spontaneous atherosclerotic lesions that mimic major features of the cellular, lipid, and extracellular matrix composition of human lesions. An important constituent of both human and mouse lesions is the lipid-laden macrophage or “foam cell” in the arterial subendothelium. The esterified cholesterol stored by macrophages is a surrogate for lesion development. Assay of esterified cholesterol directly from mouse arterial tissue (by LC/MS) provides a rapid index of lesion burden. The LDLr KO model used in the present study takes advantage of the rapid development of mature atherosclerotic plaques in the brachiocephalic artery (BCA). Primary endpoints for the study are arterial cholesteryl ester content and lesion dimensions obtained by light microscopic measurement of lesions in serial cross-sections of the artery.
LDLr KO mice (JAX #002207), 7 week old males, were obtained from The Jackson Laboratory (Bar Harbor, Me.). Upon arrival at the testing facility and continuing for a total of 10 weeks, mice were housed individually and fed the atherogenic diet TD.88137 (Teklad) ad libitum. During the first 6 weeks, the mice rested undisturbed in their cages. During the last 4 weeks, the mice received the test compound twice daily by oral gavage.

T1 sequence (Q15722 whole entry): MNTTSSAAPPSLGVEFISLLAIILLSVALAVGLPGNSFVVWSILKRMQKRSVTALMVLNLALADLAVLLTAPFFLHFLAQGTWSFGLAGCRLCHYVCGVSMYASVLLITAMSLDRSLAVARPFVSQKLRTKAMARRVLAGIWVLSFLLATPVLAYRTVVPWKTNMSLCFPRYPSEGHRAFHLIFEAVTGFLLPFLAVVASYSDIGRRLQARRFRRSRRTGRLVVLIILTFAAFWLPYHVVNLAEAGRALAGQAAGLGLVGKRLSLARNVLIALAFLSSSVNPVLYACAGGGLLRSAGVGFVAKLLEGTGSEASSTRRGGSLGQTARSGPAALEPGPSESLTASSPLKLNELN

CCCc1c(NC(=O)CC(C)(C)C(=O)[O-])cccc1OCCCOc1cc(O)c(-c2ccc(F)cc2)cc1CC.[Na+] [Example 2, Sodium 4-[[3-[3-[2-ethyl-4-(4-fluorophenyl)-5-hydroxy-phenoxy]propoxy]-2-propyl-phenyl]amino]-2,2-dimethyl-4-oxo-butanoate]
Ki ([1]; read-out: absolute Ki): 5.5 nM
Ki ([1]; read-out: relative Ki): 10.4 nM
Lesion area ([2]; 3 mg/kg BID oral gavage): 23700 µm²
Macrophage area vs. vehicle ([2]; 3 mg/kg BID, p < 0.02): −65%*
Lesion area vs. vehicle ([2]; 3 mg/kg BID, p < 0.049): −53%*
Cholesteryl ester vs. vehicle ([2]; 3 mg/kg BID, p = NS): −8%
Macrophage area (brown color) ([2]; 3 mg/kg BID): 6520 µm²
reduction of lesion area compared to vehicle ([2]; 3 mg/kg b.i.d.): 53%
Lesion area ([2]; 10 mg/kg BID oral gavage): 21200 µm²
Macrophage area vs. vehicle ([2]; 10 mg/kg BID, p < 0.002): −84%*
Lesion area vs. vehicle ([2]; 10 mg/kg BID, p < 0.034): −58%*
Cholesteryl ester vs. vehicle ([2]; 10 mg/kg BID, p < 0.09): −18%
Macrophage area (brown color) ([2]; 10 mg/kg BID): 2860 µm²
reduction of BCA cholesteryl ester (CE) content compared to vehicle ([2]; 10 mg/kg b.i.d., p<0.09): 18%
reduction of lesion area compared to vehicle ([2]; 10 mg/kg b.i.d.): 58%
Lesion area ([2]; 30 mg/kg BID oral gavage): 17100 µm²
Lesion area vs. vehicle ([2]; 30 mg/kg BID, p < 0.017): −66%*
Cholesteryl ester vs. vehicle ([2]; 30 mg/kg BID, p < 0.04): −23%*
Macrophage area vs. vehicle ([2]; 30 mg/kg BID, p < 0.09): −54%
Macrophage area (brown color) ([2]; 30 mg/kg BID): 8520 µm²
reduction of BCA cholesteryl ester (CE) content compared to vehicle ([2]; 30 mg/kg b.i.d., p<0.04): 23%
reduction of lesion area compared to vehicle ([2]; 30 mg/kg oral b.i.d., p<0.017): 66%
Cholesteryl ester ([2]; 3 mg/kg BID): 17.95 nmol
Cholesteryl ester ([2]; 10 mg/kg BID): 16.97 nmol
Cholesteryl ester ([2]; 30 mg/kg BID): 14.51 nmol
